Seven compounds from PubChem BioAssay (NCI) can be followed below.

Among the test systems are SN12C renal; 786-0 renal; MDA-MB-231 breast; DU-145 prostate; KM12 colon; SK-OV-3 ovarian; MDA-N; HS 578T breast; BT-549 breast; SK-MEL-28 melanoma; OVCAR-5 ovarian; HOP-92 NSCLC; RXF 393 renal; OVCAR-4 ovarian; LOX IMVI melanoma; SNB-75 CNS; COLO 205 colon; HCT-15 colon; SNB-19 CNS; HCT-116 colon.
Test in all cases: NCI tumour cell line growth inhibition, 48 h

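Cultured in 96-well plates, cells were exposed to test compound for 48 hours across five concentrations. TGI: concentration producing complete growth inhibition.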

With `COc1ccc2nc3cc([N+](=O)[O-])ccc3c(NNc3ccc(Cl)cc3)c2c1`, the TGI is 98 µM in the assay on SN12C renal; 53.6 µM in the assay on 786-0 renal; greater than 73.1 µM in the assay with MDA-MB-231 breast; greater than 96.5 µM in the assay with DU-145 prostate; greater than 100 µM in the assay with KM12 colon; greater than 100 µM in the assay with SK-OV-3 ovarian. Besides, the TGI is greater than 100 µM with MDA-N; greater than 100 µM in the assay with HS 578T breast; greater than 92.1 µM in the assay on BT-549 breast; greater than 100 µM in the assay on SK-MEL-28 melanoma; greater than 100 µM in the assay with OVCAR-5 ovarian; 57.9 µM in the assay on HOP-92 NSCLC. In addition, the TGI is greater than 83.4 µM with RXF 393 renal; greater than 100 µM in the assay with OVCAR-4 ovarian; greater than 100 µM in the assay with LOX IMVI melanoma; greater than 100 µM in the assay on SNB-75 CNS; 60.8 µM in the assay on COLO 205 colon; greater than 100 µM in the assay on HCT-15 colon. In addition, the values for the TGI with SNB-19 CNS and in the assay on HCT-116 colon were greater than 100 µM and greater than 55.7 µM, respectively.

On to `CC(=O)n1nc(-c2nc3ccccc3nc2Cl)cc1Cl`, for which the TGI in the assay on SN12C renal was greater than 65.9 µM; in the assay with 786-0 renal, 78.8 µM; with MDA-MB-231 breast, greater than 100 µM; in the assay on DU-145 prostate it was 43.1 µM; in the assay with KM12 colon, 48.5 µM; with SK-OV-3 ovarian, greater than 77.7 µM. The TGI in the assay on MDA-N was 24.2 µM; with HS 578T breast, greater than 91.7 µM; in the assay on BT-549 breast, 28.8 µM; in the assay on SK-MEL-28 melanoma it was greater than 86.3 µM; in the assay with OVCAR-5 ovarian it was greater than 92.3 µM; in the assay with HOP-92 NSCLC, greater than 100 µM. The TGI in the assay with RXF 393 renal was greater than 100 µM; with OVCAR-4 ovarian, 53.3 µM; in the assay with LOX IMVI melanoma it was 33.3 µM; in the assay with SNB-75 CNS, 76.6 µM; with COLO 205 colon it was 33.2 µM; in the assay on HCT-15 colon it was 57.3 µM. For the same compound, the TGI is greater than 92 µM with SNB-19 CNS and 25.4 µM with HCT-116 colon.

As to `NC(C(F)(F)F)(C(F)(F)F)P(=O)(c1ccccc1)c1ccccc1`, the TGI in the assay with SN12C renal, in the assay with 786-0 renal, in the assay on MDA-MB-231 breast, in the assay on DU-145 prostate, with KM12 colon and in the assay on SK-OV-3 ovarian was greater than 100 µM in each case. Besides, the TGI with MDA-N, with HS 578T breast, in the assay with BT-549 breast, in the assay on SK-MEL-28 melanoma, in the assay on OVCAR-5 ovarian and with HOP-92 NSCLC was greater than 100 µM throughout. The TGI in the assay with RXF 393 renal, in the assay with OVCAR-4 ovarian, in the assay with LOX IMVI melanoma, with SNB-75 CNS, with COLO 205 colon and with HCT-15 colon was greater than 100 µM throughout. Moreover, the TGI in the assay with SNB-19 CNS and with HCT-116 colon was greater than 100 µM throughout.

As to `COc1cc(/C=C2/SC(c3ccccc3)N(c3ccc(Cl)cc3)C2=O)cc(OC)c1OC` (centres undefined), the TGI with SN12C renal, in the assay with 786-0 renal, in the assay on MDA-MB-231 breast, in the assay with DU-145 prostate, in the assay with KM12 colon and in the assay with SK-OV-3 ovarian was greater than 100 µM each time. The TGI was 31.8 µM in the assay on MDA-N; greater than 100 µM in the assay on HS 578T breast; greater than 100 µM with BT-549 breast; greater than 100 µM with SK-MEL-28 melanoma; greater than 100 µM in the assay with OVCAR-5 ovarian; greater than 100 µM in the assay on HOP-92 NSCLC. In addition, the TGI in the assay with RXF 393 renal was greater than 100 µM; with OVCAR-4 ovarian, greater than 100 µM; with LOX IMVI melanoma, greater than 100 µM; with SNB-75 CNS, greater than 100 µM; in the assay with COLO 205 colon, greater than 42.6 µM; with HCT-15 colon, greater than 100 µM. Also, the TGI in the assay on SNB-19 CNS and in the assay on HCT-116 colon was greater than 100 µM in each case.

`COC(=O)/C(C#N)=C1\NC(=O)CC(c2ccccc2)C1C#N` (centres undefined): the TGI in the assay with SN12C renal, in the assay on 786-0 renal, in the assay with MDA-MB-231 breast, in the assay on DU-145 prostate, in the assay on KM12 colon and with SK-OV-3 ovarian was greater than 100 µM throughout. The TGI with MDA-N, with HS 578T breast, with BT-549 breast, with SK-MEL-28 melanoma, with OVCAR-5 ovarian and with HOP-92 NSCLC was greater than 100 µM in each case. For the same compound, the TGI in the assay with RXF 393 renal, in the assay with OVCAR-4 ovarian, in the assay on LOX IMVI melanoma, in the assay with SNB-75 CNS, in the assay on COLO 205 colon and with HCT-15 colon was greater than 100 µM throughout. Moreover, the TGI with SNB-19 CNS and in the assay with HCT-116 colon was greater than 100 µM throughout.

Regarding `O=c1oc2ccccc2cc1-c1nnc(-c2ccccc2)s1`, the TGI in the assay with SN12C renal is greater than 100 µM; with 786-0 renal it was greater than 66.6 µM; in the assay on MDA-MB-231 breast it was 46.3 µM; in the assay with DU-145 prostate it was greater than 100 µM; with KM12 colon it was 36.2 µM; in the assay with SK-OV-3 ovarian, greater than 90 µM. The TGI in the assay on MDA-N was greater than 78.1 µM; in the assay with HS 578T breast, greater than 100 µM; in the assay with BT-549 breast, greater than 100 µM; with SK-MEL-28 melanoma it was greater than 100 µM; in the assay with OVCAR-5 ovarian, greater than 100 µM; in the assay on HOP-92 NSCLC, greater than 100 µM. Also, the TGI was greater than 54.6 µM in the assay on RXF 393 renal; greater than 100 µM in the assay on OVCAR-4 ovarian; greater than 100 µM in the assay on LOX IMVI melanoma; 45.6 µM in the assay with SNB-75 CNS; greater than 100 µM in the assay on COLO 205 colon; greater than 100 µM in the assay with HCT-15 colon. In addition, the TGI was greater than 84.7 µM in the assay on SNB-19 CNS and greater than 100 µM with HCT-116 colon.

Turning to `C/C(=N\NC(=O)/C(C#N)=C\c1ccc(N(CCC#N)CCC#N)cc1)c1ccccc1`, the TGI in the assay with SN12C renal, with 786-0 renal, in the assay with MDA-MB-231 breast, in the assay with DU-145 prostate, with KM12 colon and in the assay with SK-OV-3 ovarian was greater than 10 µM in each case. Moreover, the TGI in the assay on MDA-N, in the assay on HS 578T breast, in the assay on BT-549 breast, in the assay on SK-MEL-28 melanoma, in the assay with HOP-92 NSCLC and in the assay on RXF 393 renal was greater than 10 µM throughout. Moreover, the TGI in the assay with OVCAR-4 ovarian, in the assay on LOX IMVI melanoma, in the assay with SNB-75 CNS, in the assay on COLO 205 colon, with HCT-15 colon and in the assay with SNB-19 CNS was greater than 10 µM each time. The compound also showed a TGI in the assay with HCT-116 colon greater than 10 µM.
